Active and inactive are the calls of the source. No cut-off for these calls is given here. Residues, ends and D or L forms follow the SMILES beside them.
target: Growth/differentiation factor 8 (Homo sapiens) (UniProt O14793); assay: Inhibition of myostatin (unknown origin) expressed in HEK293 cells at 10 uM incubated for 4 hrs by dual luciferase reporter gene assay; type: cell-based
Sequence (O14793 267-375 limits assumed): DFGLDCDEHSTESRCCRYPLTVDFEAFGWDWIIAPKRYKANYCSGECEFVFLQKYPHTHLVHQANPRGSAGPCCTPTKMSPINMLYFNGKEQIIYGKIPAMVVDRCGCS

Row | SMILES | inhibition
1 | CC[C@H](C)[C@H](NC(=O)[C@H](CCSC)NC(=O)[C@H](Cc1c[nH]c2ccccc12)NC(=O)[C@H](CCCCN)NC(=O)[C@H](Cc1ccccc1)NC(=O)[C@H](CC(C)C)NC(=O)[C@@H](NC(=O)[C@H](CC(N)=O)NC(=O)[C@H](CC(=O)O)NC(=O)[C@H](CC(N)=O)NC(=O)[C@@H](NC(=O)[C@H](CC(=O)O)NC(=O)[C@H](CCC(=O)O)NC(=O)[C@H](CCC(=O)O)NC(=O)[C@@H](NC(=O)[C@@H](N)Cc1c[nH]c2ccccc12)[C@@H](C)O)C(C)C)[C@@H](C)O)C(=O)N[C@@H](Cc1ccccc1)C(=O)N[C@@H](CC(N)=O)C(=O)NCC(N)=O (H-WTEEDVNDNTLFKWMIFNG-NH2) | inactive
2 | CC[C@H](C)[C@H](NC(=O)[C@H](CCSC)NC(=O)[C@H](Cc1c[nH]c2ccccc12)NC(=O)[C@H](CCCCN)NC(=O)[C@H](Cc1ccccc1)NC(=O)[C@H](CC(C)C)NC(=O)[C@@H](NC(=O)[C@H](CC(N)=O)NC(=O)[C@H](CC(=O)O)NC(=O)[C@H](CC(N)=O)NC(=O)[C@H](C)N)[C@@H](C)O)C(=O)N[C@@H](Cc1ccccc1)C(=O)N[C@@H](CC(N)=O)C(=O)NCC(N)=O (H-ANDNTLFKWMIFNG-NH2) | inactive
3 | CC[C@H](C)[C@H](NC(=O)[C@H](CCSC)NC(=O)[C@H](Cc1c[nH]c2ccccc12)NC(=O)[C@H](CCCCN)NC(=O)[C@H](Cc1ccccc1)NC(=O)[C@H](CC(C)C)NC(=O)[C@@H](NC(=O)[C@H](C)NC(=O)[C@H](CC(=O)O)NC(=O)[C@H](CC(N)=O)NC(=O)[C@@H](N)C(C)C)[C@@H](C)O)C(=O)N[C@@H](Cc1ccccc1)C(=O)N[C@@H](CC(N)=O)C(=O)NCC(N)=O (H-VNDATLFKWMIFNG-NH2) | Active
4 | CC[C@H](C)[C@H](NC(=O)[C@H](CCSC)NC(=O)[C@H](Cc1c[nH]c2ccccc12)NC(=O)[C@H](CCCCN)NC(=O)[C@H](Cc1ccccc1)NC(=O)[C@H](CC(C)C)NC(=O)[C@@H](NC(=O)[C@H](CC(N)=O)NC(=O)[C@H](CC(=O)O)NC(=O)[C@H](CC(N)=O)NC(=O)[C@@H](N)C(C)C)[C@@H](C)O)C(=O)N[C@@H](Cc1ccccc1)C(=O)N[C@@H](CC(N)=O)C(N)=O (H-VNDNTLFKWMIFN-NH2) | inactive
5 | CC[C@H](C)[C@H](NC(=O)[C@H](CCSC)NC(=O)[C@H](Cc1c[nH]c2ccccc12)NC(=O)[C@H](CCCCN)NC(=O)[C@H](Cc1ccccc1)NC(=O)[C@H](C)NC(=O)[C@@H](NC(=O)[C@H](CC(N)=O)NC(=O)[C@H](CC(=O)O)NC(=O)[C@H](CC(N)=O)NC(=O)[C@@H](N)C(C)C)[C@@H](C)O)C(=O)N[C@@H](Cc1ccccc1)C(=O)N[C@@H](CC(N)=O)C(=O)NCC(N)=O (H-VNDNTAFKWMIFNG-NH2) | inactive
6 | CC[C@H](C)[C@H](NC(=O)[C@H](CCSC)NC(=O)[C@H](Cc1c[nH]c2ccccc12)NC(=O)[C@H](C)NC(=O)[C@H](Cc1ccccc1)NC(=O)[C@H](CC(C)C)NC(=O)[C@@H](NC(=O)[C@H](CC(N)=O)NC(=O)[C@H](CC(=O)O)NC(=O)[C@H](CC(N)=O)NC(=O)[C@@H](N)C(C)C)[C@@H](C)O)C(=O)N[C@@H](Cc1ccccc1)C(=O)N[C@@H](CC(N)=O)C(=O)NCC(N)=O (H-VNDNTLFAWMIFNG-NH2) | inactive
7 | CC[C@H](C)[C@H](NC(=O)[C@H](CCSC)NC(=O)[C@H](Cc1c[nH]c2ccccc12)NC(=O)[C@H](CCCCN)NC(=O)[C@H](Cc1ccccc1)NC(=O)[C@H](CC(C)C)NC(=O)[C@@H](NC(=O)[C@H](CC(N)=O)NC(=O)[C@H](CC(=O)O)NC(=O)[C@@H](N)CC(N)=O)[C@@H](C)O)C(=O)N[C@@H](Cc1ccccc1)C(=O)N[C@@H](CC(N)=O)C(N)=O (H-NDNTLFKWMIFN-NH2) | Active
8 | CC[C@H](C)[C@H](NC(=O)[C@H](CCSC)NC(=O)[C@H](Cc1c[nH]c2ccccc12)NC(=O)[C@H](CCCCN)NC(=O)[C@H](Cc1ccccc1)NC(=O)[C@H](CC(C)C)NC(=O)[C@@H](NC(=O)[C@H](CC(N)=O)NC(=O)[C@H](CC(=O)O)NC(=O)[C@H](CC(N)=O)NC(=O)[C@@H](NC(=O)[C@H](CC(=O)O)NC(=O)[C@H](CCC(=O)O)NC(=O)[C@@H](N)CCC(=O)O)C(C)C)[C@@H](C)O)C(=O)N[C@@H](Cc1ccccc1)C(=O)N[C@@H](CC(N)=O)C(=O)NCC(N)=O (H-EEDVNDNTLFKWMIFNG-NH2) | inactive
9 | CC[C@H](C)[C@H](NC(=O)[C@H](CCSC)NC(=O)[C@H](Cc1c[nH]c2ccccc12)NC(=O)[C@H](CCCCN)NC(=O)[C@H](Cc1ccccc1)NC(=O)[C@H](CC(C)C)NC(=O)[C@@H](NC(=O)[C@H](CC(N)=O)NC(=O)[C@H](CC(=O)O)NC(=O)[C@H](CC(N)=O)NC(=O)[C@@H](N)C(C)C)[C@@H](C)O)C(=O)N[C@@H](Cc1ccccc1)C(=O)N[C@@H](CC(N)=O)C(=O)N[C@@H](C)C(N)=O (H-VNDNTLFKWMIFNA-NH2) | Active
10 | CC[C@H](C)[C@H](NC(=O)[C@H](CCSC)NC(=O)[C@H](Cc1c[nH]c2ccccc12)NC(=O)[C@H](CCCCN)NC(=O)[C@H](C)NC(=O)[C@H](CC(C)C)NC(=O)[C@@H](NC(=O)[C@H](CC(N)=O)NC(=O)[C@H](CC(=O)O)NC(=O)[C@H](CC(N)=O)NC(=O)[C@@H](N)C(C)C)[C@@H](C)O)C(=O)N[C@@H](Cc1ccccc1)C(=O)N[C@@H](CC(N)=O)C(=O)NCC(N)=O (H-VNDNTLAKWMIFNG-NH2) | inactive
11 | CC[C@H](C)[C@H](NC(=O)[C@H](CCSC)NC(=O)[C@H](Cc1c[nH]c2ccccc12)NC(=O)[C@H](CCCCN)NC(=O)[C@H](Cc1ccccc1)NC(=O)[C@H](CC(C)C)NC(=O)[C@H](C)NC(=O)[C@H](CC(N)=O)NC(=O)[C@H](CC(=O)O)NC(=O)[C@H](CC(N)=O)NC(=O)[C@@H](N)C(C)C)C(=O)N[C@@H](Cc1ccccc1)C(=O)N[C@@H](CC(N)=O)C(=O)NCC(N)=O (H-VNDNALFKWMIFNG-NH2) | inactive
12 | CC[C@H](C)[C@H](NC(=O)[C@H](CCSC)NC(=O)[C@H](Cc1c[nH]c2ccccc12)NC(=O)[C@H](CCCCN)NC(=O)[C@H](Cc1ccccc1)NC(=O)[C@H](CC(C)C)NC(=O)[C@@H](NC(=O)[C@H](CC(N)=O)NC(=O)[C@H](CC(=O)O)NC(=O)[C@H](CC(N)=O)NC(=O)[C@@H](N)C(C)C)[C@@H](C)O)C(=O)N[C@@H](Cc1ccccc1)C(=O)N[C@@H](C)C(=O)NCC(N)=O (H-VNDNTLFKWMIFAG-NH2) | inactive
13 | CC[C@H](C)[C@H](NC(=O)[C@H](C)NC(=O)[C@H](Cc1c[nH]c2ccccc12)NC(=O)[C@H](CCCCN)NC(=O)[C@H](Cc1ccccc1)NC(=O)[C@H](CC(C)C)NC(=O)[C@@H](NC(=O)[C@H](CC(N)=O)NC(=O)[C@H](CC(=O)O)NC(=O)[C@H](CC(N)=O)NC(=O)[C@@H](N)C(C)C)[C@@H](C)O)C(=O)N[C@@H](Cc1ccccc1)C(=O)N[C@@H](CC(N)=O)C(=O)NCC(N)=O (H-VNDNTLFKWAIFNG-NH2) | inactive
14 | CC[C@H](C)[C@H](NC(=O)[C@H](CCSC)NC(=O)[C@H](Cc1c[nH]c2ccccc12)NC(=O)[C@H](CCCCN)NC(=O)[C@H](Cc1ccccc1)NC(=O)[C@H](CC(C)C)NC(=O)[C@@H](NC(=O)[C@H](CC(N)=O)NC(=O)[C@H](CC(=O)O)NC(=O)[C@@H](N)CC(N)=O)[C@@H](C)O)C(=O)N[C@@H](Cc1ccccc1)C(=O)N[C@@H](CC(N)=O)C(=O)NCC(N)=O (H-NDNTLFKWMIFNG-NH2) | inactive

From ChEMBL document CHEMBL4610025, “Discovery of a follistatin-derived myostatin inhibitory peptide” (Bioorg Med Chem Lett, 2020)
